Results published in patent publication US20100160332A1, “a2-Adrenoceptor Ligands” (The Provost, Fellows and Scholars of the College of the …, priority 2008, published 2010).
Like-named read-outs stand apart in the source and are kept apart here.

Key:
α2-ARs [1] = conditions: J. Med. Chem. 2007 and 2008 studies; cited from earlier work
α2-ARs [2] = molecular target: T1, α2-ARs (Homo sapiens, UniProt P08913); assay: [35S]GTPγS binding assay (agonist stimulation) in human brain cortical membranes; type: biochemical; conditions: for stimulation of [35S]GTPγS binding (agonist dose-response plot): compound alone
T1 sequence (P08913 whole entry): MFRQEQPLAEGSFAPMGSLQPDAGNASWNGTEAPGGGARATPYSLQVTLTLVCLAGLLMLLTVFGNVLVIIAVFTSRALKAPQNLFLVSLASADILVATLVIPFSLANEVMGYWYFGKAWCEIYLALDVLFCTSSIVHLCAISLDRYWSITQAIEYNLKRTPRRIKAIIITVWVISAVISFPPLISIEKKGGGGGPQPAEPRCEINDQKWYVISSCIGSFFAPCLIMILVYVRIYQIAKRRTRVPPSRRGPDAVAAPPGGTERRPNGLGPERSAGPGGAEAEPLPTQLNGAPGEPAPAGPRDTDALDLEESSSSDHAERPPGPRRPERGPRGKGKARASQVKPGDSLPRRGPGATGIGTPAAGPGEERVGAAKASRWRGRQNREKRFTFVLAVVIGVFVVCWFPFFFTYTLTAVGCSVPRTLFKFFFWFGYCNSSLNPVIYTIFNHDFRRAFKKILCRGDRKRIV
Excerpt: The α2-ARs are G-protein coupled receptors (GPCRs), and as such, when the endogenous ligand binds to the receptor, a change in the conformation of the G-proteins occurs leading to the exchange of GDP by GTP on the α-subunit, promoting their dissociation into α-GTP and βγ subunits, and resulting in transmembrane signalling. A direct evaluation of this G-protein activity can be made by determining the guanine nucleotide exchange using radiolabelled GTP analogues. The [^35S]GTPγS binding assay constitutes a functional measure of the interaction of the receptor and the G-protein and is a useful tool to distinguish between agonists (increasing the nucleotide binding), inverse agonists (decreasing the nucleotide binding), and neutral antagonists (not affecting the nucleotide binding) of GPCRs.
(§1) Preparation of membranes. Neural membranes (P2 fractions) were prepared from the PFC of human brains obtained at autopsy in the Instituto Vasco de Medicine Legal, Bilbao, Spain. Postmortem human brain samples of each subject (˜1 g) were homogenized using a Teflon-glass grinder (10 up-and-down strokes at 1500 rpm) in 30 volumes of homogenization buffer (1 mM MgCl2, and 5 mM Tris-HCl, pH 7.4) supplemented with 0.25 M sucrose. The crude homogenate was centrifuged for 5 min at 1000×g (4° C.) and the supernatant was centrifuged again for 10 min at 40000×g (4° C.). The resultant pellet was washed twice in 20 volumes of homogenization buffer and recentrifuged in similar conditions. Aliquots of 1 mg protein were stored at −70° C. until assay.
[^35S]GTPγS binding assays. The incubation buffer for measuring [^35S]GTPγS binding to brain membranes contained, in a total volume of 500 μL, 1 mM EGTA, 3 mM MgCl2, 100 mM NaCl, […], 50 mM Tris-HCl at pH 7.4 and 0.5 nM [^35S]GTPγS. Proteins aliquots were thawed and re-suspended in the same buffer. The incubation was started by addition of the membrane suspension (40 μg of membrane proteins) to the previous mixture and was performed at 30° C. for 120 min with shaking. In order to evaluate the influence of the compounds on [^35S]GTPγS binding, 8 concentrations (10^−10 to 10^−3M) of the different compounds were added to the assay. Incubations were terminated by adding 3 mL of ice-cold re-suspension buffer followed by rapid filtration through Whatman GF/C filters pre-soaked in the same buffer. The filters were rinsed twice with 3 mL of ice-cold re-suspension buffer, transferred to vials containing 5 mL. of OptiPhase HiSafe II cocktail (Wallac, UK) and the radioactivity trapped was determined by liquid scintillation spectrometry (Packard 2200CA). […] Non-specific binding of the radioligand was defined as the remaining [^35S]GTPγS binding in the presence of 10 μM unlabelled GTPγS.

[3] = tested on: extracellular NA levels in the PFC; assay: In-vivo microdialysis, extracellular NA in the PFC of freely moving rats; set-up: species or system rat; conditions: for Emax, extracellular NA levels: local administration by reverse dialysis 1-100 μM in PFC
Excerpt: The antagonistic properties of derivative 8b in-vitro, were substantiated by testing its effect on noradrenergic transmission in vivo using microdialysis experiments. This technique is a widely accepted method for sampling the extracellular fluid of the brain, allowing the study of different neurotransmitters in the extracellular area where the probe is implanted. This technique has been used to investigate the effect of different compounds on NA concentrations in the PFC, an area widely implicated in depression. The increase of NA concentration in the PFC of freely moving rats after drug administration is accepted as a good predictor for antidepressant activity. In this context, many antidepressants, including the α2-AR antagonist Mirtazapine, are able to increase dialysate levels of NA in the PFC.
Compounds 8b and RX821002 were dissolved in aCSF and perfussed via reverse dialysis at the time indicated by the arrows (every 70 minutes). Data correspond to the mean±standard error mean values from 3 to 5 animals for each group, and are expressed as percentages of the corresponding basal values.
Control rats were administered with the vehicle (saline). Intraperitoneal administration of compound 8b (10 mg/kg) increased NA extracellular concentration by 161±30% in the PFC. Data are given as mean±standard error mean values from 4-5 separate animals for each group and are expressed as percentages of the corresponding basal values. The arrow represents the time of administration of the compound or vehicle.
Microdialysis experiments Male Sprague-Dawley rats (250-300 g) were implanted with a probe in a stereotaxic apparatus under chloral hydrate anaesthesia (400 mg/kg i.p.). The probe was located in the prefrontal cortex (PFC) according to the co-ordinates of the atlas of Paxinos and Watson (AP (anterior to bregma) +2.8 mm, L (lateral from the mid-sagittal suture) +1 mm, DV (ventral from the dura surface) −5 mm). Experiments were performed 20-24 h after the probe implantation and aCSF (148 mM NaCl, 2.7 mM KCl, 1.2 mM CaCl2 and 0.85 mM MgCl2; pH 7.4) was pumped at a flow rate of 1 μl/min (CMA/Microdialysis infusion pump). […] Samples were collected every 35 min and NA concentrations analyzed by HPLC apparatus with amperometric detection (Hewlett-Packard model 1049A) at an oxidizing potential of +650 mV. […] Samples (injection volume 30 μl) were injected and NA analyzed in a run time of 10 min. […] All measures of extracellular NA concentrations are expressed as percentage of the baseline value±s.e.mean. One-way analysis of variance (ANOVA) for control group or two-way ANOVA between control and each treated group was assessed for statistical analysis. […]

α2-ARs [4] = molecular target: T1, α2-ARs; assay: UK14304 stimulation of [35S]GTPγS binding in absence or presence of compounds (antagonism test); type: biochemical; conditions: human brain PFC, in vitro, 10^−5 M
Procedure: as §1
[^35S]GTPγS binding assays. The incubation buffer for measuring [^35S]GTPγS binding to brain membranes contained, in a total volume of 500 μL, 1 mM EGTA, 3 mM MgCl2, 100 mM NaCl, […], 50 mM Tris-HCl at pH 7.4 and 0.5 nM [^35S]GTPγS. Proteins aliquots were thawed and re-suspended in the same buffer. […] The filters were rinsed twice with 3 mL of ice-cold re-suspension buffer, transferred to vials containing 5 mL. of OptiPhase HiSafe II cocktail (Wallac, UK) and the radioactivity trapped was determined by liquid scintillation spectrometry (Packard 2200CA). […]

Tail suspension test = type: in vivo, rat
Excerpt: FIG. 4 illustrates the rat tail suspension test for a number of compounds. The tail suspension test has become one of the most widely used models for assessing antidepressant-like activity in mice. The test is based on the fact that animals subjected to the short-term, inescapable stress of being suspended by their tail, will develop an immobile posture. Antidepressant medications reverse the immobility and promote the occurrence of escape-related behaviour.

Row | Structure (SMILES) | Emax (α2-ARs [2]) | stimulation of [35S]GTPγS binding (agonist dose-response plot) (α2-ARs [2]) | Emax (α2-ARs [2]; read-out: Emax (%)) | also measured
1 | c1cc2c(cc1NC1=NCCN1)OCO2 [5′] | – | – | – | behaviour at α2-ARs (α2-ARs [1]): antagonist behaviour
2 | N=C(N)Nc1ccc2c(c1)CCCC2 [6′] | – | – | – | behaviour at α2-ARs (α2-ARs [1]): antagonist behaviour
3 | CNc1ccc(NC2=NCCN2)cc1 [Compound 4b, N-imidazolidin-2-ylidene-N′-methyl-benzene-1,4-diamine] | 98% | stimulated binding of [^35S]GTPγS | – | –
4 | CCNc1ccc(NC2=NCCN2)cc1 [Compound 5b, N-ethyl-N′-imidazolidin-2-ylidene-benzene-1,4-diamine] | 95% | stimulated binding of [^35S]GTPγS | – | –
5 | CCN(C)c1ccc(NC2=NCCN2)cc1 [Compound 6b, N-Ethyl-N′-imidazolidin-2-ylidene-N-methyl-benzene-1,4-diamine] | 103% | stimulated binding of [^35S]GTPγS | – | –
6 | CNc1ccc(NC(=N)N)cc1 [Compound 7b, N-(4-methylamino-phenyl)-guanidine] | – | stimulated binding of [^35S]GTPγS | 87% | –
7 | CCNc1ccc(NC(=N)N)cc1 [Compound 8b, N-(4-ethylamino-phenyl)-guanidine] | – | did not stimulate binding of [^35S]GTPγS | – | ability to cross the blood brain barrier (BBB) ([3]; inferred from NA increase after intraperitoneal administration): ability of the compound to cross the blood brain barrier; increase of NA extracellular concentration ([3]; intraperitoneal 10 mg/kg, PFC, percentages of basal values): 161±30%; Emax, extracellular NA levels ([3]; percentages of basal values): 304±54%; nature at α2-ARs from shift of UK14304 EC50 (α2-ARs [4]): behaves as an antagonist; performance against fluoxetine (Tail suspension test; 8b 10 mg/kg vs fluoxetine 40 mg/kg): vastly outperforms; time in immobile posture (Tail suspension test; FIG. 4, against all other compounds tested): shortest length of time
8 | CCN(C)c1ccc(NC(=N)N)cc1 [Compound 9b, N-[4-(ethyl-methyl-amino)-phenyl]-guanidine] | – | stimulated binding of [^35S]GTPγS | 92% | –
9 | CCN(CC)c1ccc(NC(=N)N)cc1 [Compound 17, reference compound] | – | stimulated binding of [^35S]GTPγS | 89% | –
10 | COC1(C2=NCCN2)COc2ccccc2O1 (stereo not shown) [RX821002, 2-methoxy-idazoxan, reference compound] | – | – | – | Emax, extracellular NA levels ([3]; percentages of basal values): 290±35%
